Measurements as given in patent US6358883B1, “Pesticidal and parasiticidal use of 1-aryl-1-(substituted thio, sulfinyl and sulfonyl)-2-nitroethane compounds” (American Cyanamid Company, priority 1998, dated 2002).

What was measured:
Format in all cases: in vivo
[1] = test system: M. incognita (Root Knot Nematode) larvae; assay: Evaluation of test compounds against M. incognita larvae in microtiter plate wells (movement score); details: larvae scored for movement after 20-24 hours; further: key: A score of '9' indicates inactive worms with a straight, sticklike morphology; A score of '8' indicates inactive worms with a limp, curled or curved morphology; A score of '7' indicates dead/paralyzed worms after 72 hours
Method in brief: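 Newly emerged M. incognita larvae in S Medium (buffered salt solution), 50-65 worms per well, exposed to test compounds in sealed microtiter wells. Movement scored after 20-24 h incubation; wells with obviously dead/paralyzed larvae scored positive. A score of "7" denotes dead/paralyzed worms after […].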

[2] = test system: C. elegans (Bristol strain); assay: Evaluation of test compounds against C. elegans (motility, 96-well plate); parameters: key: 9=complete kill in 4 hours; 8=complete kill in 24 hours; 7=markedly reduced motility in approximately 95% of worms in 24 hours; 0=normal motility, same as controls; details: motility at 4 and 24 hours
Method in brief: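 Bristol-strain C. elegans in Na buffer added to wells containing dried compound (applied in 80% acetone) and incubated at 20 °C. Motility of adults and larvae scored subjectively but semi-quantitatively under a dissecting microscope at 4 and 24 h after immersion, plates tapped before reading.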

[3] = test system: Spodoptera eridania, 2nd instar larvae, southern armyworm (SAW); assay: Southern armyworm (SAW) leaf dip test; parameters: key: 0 = no effect; 1 = 10-25% kill; 2 = 26-35% kill; 3 = 36-45% kill; 4 = 46-55% kill; 5 = 56-65% kill; 6 = 66-75% kill; 7 = 76-85% kill; 8 = 86-99% kill; 9 = 100% kill
Method in brief: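 Compound is dissolved at 10,000 ppm in 35% acetone/water, then diluted with water. Lima bean leaves are dipped for 3 seconds, dried and placed with ten 2nd instar larvae on damp filter paper. Mortality, reduced feeding and molting interference are scored at 5 days.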

[4] = test system: Diabrotica virgifera virgifera Leconte, 2nd instar western corn rootworm (WCR); assay: Western corn rootworm (WCR) soil test; parameters: key: 0 = no effect; 1 = 10-25% kill; 2 = 26-35% kill; 3 = 36-45% kill; 4 = 46-55% kill; 5 = 56-65% kill; 6 = 66-75% kill; 7 = 76-85% kill; 8 = 86-99% kill; 9 = 100% kill
Method in brief: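 Compound in 35% acetone/water applied to talc at 1.25 mg active ingredient per jar (about 50 kg/ha), solvent evaporated, then mixed with millet seed and moist soil. Ten 2nd-instar larvae per jar; mortality counted after 5 days, missing larvae scored dead.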

[5] = test system: Tetranychus urticae (OP-resistant strain), 2-spotted spider mite (TSM); assay: 2-spotted spider mite (TSM) plant dip test; parameters: key: 0 = no effect; 1 = 10-25% kill; 2 = 26-35% kill; 3 = 36-45% kill; 4 = 46-55% kill; 5 = 56-65% kill; 6 = 66-75% kill; 7 = 76-85% kill; 8 = 86-99% kill; 9 = 100% kill; details: mortality after 2 days
Method in brief: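 OP-resistant mites (~100 per leaf) were transferred onto Sieva lima bean primary leaves about 2 h before treatment. Infested plants were dipped for 3 s in compound from a 10,000 ppm stock in 35% acetone/water, diluted with water. Mortality was counted after 2 days.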

[6] = test system: Aphis gossypii, cotton aphid (CA); assay: Cotton aphid (CA) cotyledon dip test; parameters: key: 0 = no effect; 1 = 10-25% kill; 2 = 26-35% kill; 3 = 36-45% kill; 4 = 46-55% kill; 5 = 56-65% kill; 6 = 66-75% kill; 7 = 76-85% kill; 8 = 86-99% kill; 9 = 100% kill; details: mortality after 5 days
Method in brief: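 Cotyledon-stage cotton plants infested overnight via a heavily infested leaf, then dipped in test solution (compound in 35% acetone/water, diluted with water) and dried. Mortality counted after 5 days.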

[7] = test system: Spodoptera eridania, eggs-southern armyworm (SAW-Eggs); assay: Southern armyworm eggs (SAW-Eggs) treated diet test; parameters: key: 0 = no effect; 1 = 10-25% kill; 2 = 26-35% kill; 3 = 36-45% kill; 4 = 46-55% kill; 5 = 56-65% kill; 6 = 66-75% kill; 7 = 76-85% kill; 8 = 86-99% kill; 9 = 100% kill; details: mortality after 7 days
Protocol: (§1) Test solutions are prepared by dissolving the test compound in a 35% acetone in water mixture to give a concentration of 10,000 ppm. Subsequent dilutions are made with water as needed. Spodoptera eridania, Eggs-southern Armyworm and Diabrotica undecimpunctata howardi, Eggs-southern Corn Rootworm (SAW-Eggs) and (SCR-Eggs) Wells containing artificial diet are treated with the test solutions and dried. The appropriate insect eggs are then placed in the wells. The wells are covered with vented, adhesive, clear plastic covers. After 7 days, mortality counts are made. [table]

[8] = test system: Diabrotica undecimpunctata howardi, eggs-southern corn rootworm (SCR-Eggs); assay: Southern corn rootworm eggs (SCR-Eggs) treated diet test; parameters: key: 0 = no effect; 1 = 10-25% kill; 2 = 26-35% kill; 3 = 36-45% kill; 4 = 46-55% kill; 5 = 56-65% kill; 6 = 66-75% kill; 7 = 76-85% kill; 8 = 86-99% kill; 9 = 100% kill; details: mortality after 7 days
Protocol: as §1

Row | SMILES | M. incognita (150 ppm) score [1] | Rating Against C. elegans (150 ppm) [2] | SAW (300 ppm) rating [3] | WCR (50 ppm) rating [4] | TSM (300 ppm) rating [5] | CA (300 ppm) rating [6] | SAW Eggs (300 ppm) rating [7] | SCR Eggs (1000 ppm) rating [8]
1 | CC(C)CCCCCOC(=O)CSC(C[N+](=O)[O-])c1ccc(F)cc1 (centres unmarked) [Example 11] | 0 | 0 | 0 | 0 | 0 | 0 | 0 | 
2 | CCCCC(CC)COC(=O)CSC(C[N+](=O)[O-])c1ccccc1 (centres unmarked) [Example 9] | 0 | 0 | 0 | 4 (4 = 46-55% kill) | 0 | 0 | 0 | 
3 | CCCCOC(=O)CSC(C[N+](=O)[O-])c1ccccc1 (centres unmarked) [Example 7] | 9 | 8 | 0 | 0 | 0 | 0 | 0 | 
4 | CC(C)CCCCCOC(=O)CSC(C[N+](=O)[O-])c1ccccc1 (centres unmarked) [Example 8] | 0 | 0 | 0 | 0 | 0 | 0 | 0 | 
5 | CCCCOC(=O)CSC(C[N+](=O)[O-])c1ccc(F)cc1 (centres unmarked) [Example 17] | 9 | 8 | 0 | 0 | 5 (5 = 56-65% kill) | 0 | 0 | 
6 | COC(=O)CSC(C[N+](=O)[O-])c1ccc(F)cc1 (centres unmarked) [Example 15] | 9 | 9 | 0 | 3 (3 = 36-45% kill) | 0 | 0 | 0 | 
7 | CCCCC(CC)COC(=O)CSC(C[N+](=O)[O-])c1ccccc1Cl (racemic) [Example 92] | 0 | 0 | 0 | 5 (5 = 56-65% kill) | 0 | 0 |  | 0
8 | CCOC(=O)CSC(C[N+](=O)[O-])c1ccc(F)cc1 (centres unmarked) [Example 16] | 9 | 8 | 0 | 0 | 0 | 0 | 0 | 
9 | CCCCC(CC)COC(=O)CSC(C[N+](=O)[O-])c1ccc(F)cc1 (centres unmarked) [Example 12] | 0 | 0 | 0 | 0 | 0 | 0 | 0 | 
10 | CCCSC(C[N+](=O)[O-])c1ccccc1Cl (racemic) [Example 94] | 0 | 0 | 0 | 0 | 0 | 0 |  | 0
11 | O=[N+]([O-])CC(SCc1ccccc1)c1ccccc1 (centres unmarked) [Example 10] | 0 | 0 | 0 | 0 | 0 | 0 | 0 | 
12 | CC(C)c1ccc(C(C[N+](=O)[O-])SCc2ccccc2)cc1 (centres unmarked) [Example 36] | 0 | 0 | 1 (1 = 10-25% kill) | 0 | 0 | 0 |  | 7 (7 = 76-85% kill)
13 | CCCSC(C[N+](=O)[O-])c1ccc(F)cc1 (centres unmarked) [Example 14] | 0 | 0 | 0 | 0 | 0 | 0 | 0 | 
14 | CCCCOC(=O)CSC(C[N+](=O)[O-])c1ccccc1Cl (centres unmarked) [Example 90] | 8 | 7 | 0 | 0 | 3 (3 = 36-45% kill) | 0 |  | 0
15 | CC(C)CCCCCOC(=O)CSC(C[N+](=O)[O-])c1ccccc1F (centres unmarked) [Example 42] | 0 | 0 | 0 | 6 (6 = 66-75% kill) | 0 | 0 |  | 9 (9 = 100% kill)
16 | C=CCSC(C[N+](=O)[O-])c1ccc(C(C)C)cc1 (centres unmarked) [Example 38] | 0 | 0 | 0 | 0 | 0 | 0 |  | 9 (9 = 100% kill)
17 | O=[N+]([O-])CC(SCc1ccccc1)c1ccccc1F (centres unmarked) [Example 44] | 0 | 7 | 5 (5 = 56-65% kill) | 4 (4 = 46-55% kill) | 0 | 0 |  | 0
